Data as given in patent US20030109448A1, “Methods of promoting uptake and nuclear accumulation of polyamides in eukaryotic cells” (priority 2001, published 2003).
Entries after “also recorded” stand apart in the source; their conditions may differ.

Key:
RSF cells = experiment: Effect of P-gp inhibitors on intracellular distribution of Compound 1; format: cell-based, human
[1] = tested on: HCT116 human colon cancer cells; experiment: Intracellular distribution of fluorescent-labeled polyamides by fluorescence microscopy; format: cell-based; details: HCT116, overnight at 37° C.
Experimental: Previously established low passage number human colon cancer HCT116 cells were cultured as monolayers and maintained at 37° C. in a humidified incubator with 5% CO2 in buffered medium consisting of RPMI 1640 (GIBCO, Life Technologies, Rockville, Md.) supplemented with 2 mM L-glutamine, 10% fetal bovine serum (GIBCO), 100 Units/ml Penicillin-Streptomycin and 25 μg/ml Gentamicin. Previously established low passage number human rheumatoid synovial fibroblasts (RSFs) were cultured in DMEM (GIBCO 11995-040) supplemented with 15% FBS, 1% glutamine, and 50 µg/ml Gentamycin.
HCT116 cells or RSF cells (8×10^5) were plated on 25-mm round glass coverslips in 30-mm wells and incubated for 24 hr to allow cells to adhere. […]
Live wet mounted cells were examined and photographed using an Olympus AX70 Microscope equipped with fluorescence optics and a Sony 3CCD color video camera. DAPI was detected using a bandpass 405±20 nm excitation filter, a 420 nm dichroic beam splitter, and a ≧450 emission filter (DAPI filter set). BODIPY and fluorescein conjugated polyamides were selectively detected using a bandpass 485±11 nm excitation filter, a 505 nm dichroic beam splitter, and a 530±15 nm emission filter (fluorescein filter set). Organelle-specific probes were detected using a 546+/−5 nm excitation filter, a 570 nm dichroic beam splitter and a 590 nm longpass emission filter (Rhodamine filter set). […]

Compound	effect on intracellular distribution of Compound 1 (RSF cells)	location of Compound 1 green fluorescence in presence of inhibitor (RSF cells)	fluorescent-filled vesicles [1]	nuclear fluorescence (nuclear localization) [1]
COc1ccc(CCN(C)CCCC(C#N)(c2ccc(OC)c(OC)c2)C(C)C)cc1OC (stereo not shown) [verapamil]	dramatic reduction in cytoplasmic fluorescence accompanied by a re-distribution of Compound 1 to the nucleus	observed in the nuclei in the presence of verapamil		
Im-Im-Py-Py-γ-Py-Py-Py-Py-β-Ta-FITC [Compound 2]			absent	nuclei are brightly stained; also recorded: observed in the nuclei of the cells
